Data reported in patent US10550190B2 (Merck Sharp & Dohme Corp., priority 2014, dated 2020).
Like-named read-outs stand apart in the source and are kept apart here.

Tests used:
[1] = In vitro stability, rat liver lysosome incubation
Procedure: All linker compounds were solubilized in DMSO to form each 10 mM stock solution. Dosing solution for each linker was prepared by serial dilution of each stock solution using 1:3 acetonitrile:water. All solutions were kept on ice during the experiment.
Rat lysosomes were pre-warmed in a 37° C. water bath in an appropriate volume to collect samples over a time course from 0 minutes through 6 hours. Incubating lysosomes were mixed well just prior to sampling to give a homogenous mixture. Aliquots of lysosomes were removed at appropriate time points, added to cold stopping solution, which was methanol containing an appropriate internal standard, and mixed rigorously. The samples were centrifuged at 4000 RPM for 10 minutes after which equal volumes of supernatant were diluted with cold deionized water. The samples were ready for analysis.
(§1) A Thermo LX-2 ultra-performance liquid chromatography system coupled with a Sciex API5000 triple quadrupole mass spectrometer was used for the analysis. The payload and drug-linkers were retained and separated by a C18 column and detected by the mass spectrometer. […] Samples were kept in cold stack set at 5° C.

[2] = In vitro stability, human whole blood incubation
Procedure: Human blood was collected the morning of the experiment from at least 3 individuals using K2EDTA as the anticoagulant. An equal volume from each individual was combined for use in the experiment. The experiment started no more than 2 hours after the blood collection. All drug-linker conjugates were solubilized in DMSO to form each 10 mM stock solution. Dosing solution for each linker was prepared by serial dilution of each stock solution using 1:3 acetonitrile:water. All solutions were kept on ice during the experiment.
Human blood was pre-warmed in a 37° C. water bath in an appropriate volume to collect samples over a time course from 0 through 6 hours. Incubating blood was mixed well just prior to sampling to give a homogenous mixture. Aliquots of blood were removed at appropriate time points, added to cold stopping solution, which was methanol containing an appropriate internal standard, and mixed rigorously. The samples were centrifuged at 4000 RPM for 10 minutes after which equal volumes of the supernatant fractions were diluted with cold deionized water. The samples were then ready for analysis.
as §1

[3] = Solubility of drug-linkers in 20% MeCN/H2O; conditions: aqueous with cosolvent or surfactant or cyclodextrin
[4] = not given; remark: listed apart in the source
physchem = conditions: aqueous with cosolvent or surfactant or cyclodextrin
[5] = Matrix spiking (time 0 sample, lysosomes pretreated with stopping reagent)

C[C@@H]1C[C@H]2[C@@H]3CCC4=CC(=O)C=C[C@]4(C)[C@@]3(F)[C@@H](O)C[C@]2(C)[C@@]1(O)C(=O)COP(=O)(O)OP(=O)(O)Oc1ccc(NC(=O)COC2C#CCCCCC2)cc1 (stereo partly shown) [Compound 3-4]
Calculated Conc. for each compound in rat lysosomal lysate ([1]; 37° C., 0 m): 1252 nM
Calculated Conc. for each compound in rat lysosomal lysate ([1]; 37° C., 5 m): 501.28 nM
Calculated Conc. for each compound in rat lysosomal lysate ([1]; 37° C., 10 m): 149.18 nM
Calculated Conc. for each compound in rat lysosomal lysate [1, 5]: 3128.83 nM
detectability of drug-linker in rat lysosomal extract (in words) ([1]; after 10 minutes incubation): no longer detectable
Calculated Conc. for each compound in human whole blood ([2]; 37° C., 0 m): 1382 nM
Calculated Conc. for each compound in human whole blood ([2]; 37° C., 5 m): 1325 nM
Calculated Conc. for each compound in human whole blood ([2]; 37° C., 15 m): 1398 nM
Calculated Conc. for each compound in human whole blood ([2]; 37° C., 30 m): 1250 nM
Calculated Conc. for each compound in human whole blood ([2]; 37° C., 1 hr): 1141 nM
Calculated Conc. for each compound in human whole blood ([2]; 37° C., 2 hr): 1703 nM
solubility [3]: > 10000 µg/mL

C[C@@H]1C[C@H]2[C@@H]3CCC4=CC(=O)C=C[C@]4(C)[C@@]3(F)[C@@H](O)C[C@]2(C)[C@@]1(O)C(=O)COP(=O)(O)OCCNC(=O)COC1C#CCCCCC1 (stereo partly drawn) [Compound 4-3, 2-(2-(cyclooct-2-yn-1-yloxy)acetamido)ethyl (2-((8S,9R,10S,11S,13S,14S,16R,17R)-9-fluoro-11,17-dihydroxy-10,13,16-trimethyl-3-oxo-6,7,8,9,10,11,12,13,14,15,16,17-dodecahydro-3H-cyclopenta[a]phenanthren-17-yl)-2-oxoethyl) hydrogen phosphate]
Calculated Conc. for dexamethasone in rat lysosomal lysate (0 min): 0.9 nM
Calculated Conc. for each compound in rat lysosomal lysate (0 min): 888.8 nM
Calculated Conc. for dexamethasone in rat lysosomal lysate (5 min): 14.5 nM
Calculated Conc. for each compound in rat lysosomal lysate (5 min): 1156.1 nM
Calculated Conc. for dexamethasone in rat lysosomal lysate (10 min): 14.2 nM
Calculated Conc. for each compound in rat lysosomal lysate (10 min): 983.4 nM
Calculated Conc. for dexamethasone in rat lysosomal lysate (15 min): 22.3 nM
Calculated Conc. for each compound in rat lysosomal lysate (15 min): 1032.6 nM
Calculated Conc. for dexamethasone in rat lysosomal lysate (30 min): 28.9 nM
Calculated Conc. for each compound in rat lysosomal lysate (30 min): 980.1 nM
Calculated Conc. for dexamethasone in rat lysosomal lysate (1 h): 41.6 nM
Calculated Conc. for each compound in rat lysosomal lysate (1 h): 882.4 nM
Calculated Conc. for dexamethasone in rat lysosomal lysate (2 h): 72.5 nM
Calculated Conc. for each compound in rat lysosomal lysate (2 h): 880.1 nM
Calculated Conc. for dexamethasone in rat lysosomal lysate (3 h): 90.2 nM
Calculated Conc. for each compound in rat lysosomal lysate (3 h): 903.8 nM
Calculated Conc. for dexamethasone in rat lysosomal lysate (6 h): 141.9 nM
Calculated Conc. for each compound in rat lysosomal lysate (6 h): 858.9 nM
Calculated Conc. for each compound in human whole blood ([4]; 0 min): 1539 nM
Calculated Conc. for dexamethasone in human whole blood ([4]; 20 min): 0 nM
Calculated Conc. for each compound in human whole blood ([4]; 20 min): 1861 nM
Calculated Conc. for dexamethasone in human whole blood ([4]; 1 h): 0 nM
Calculated Conc. for each compound in human whole blood ([4]; 1 h): 1619 nM
Calculated Conc. for dexamethasone in human whole blood ([4]; 3 h): 1 nM
Calculated Conc. for each compound in human whole blood ([4]; 3 h): 1677 nM
Calculated Conc. for dexamethasone in human whole blood ([4]; 6 h): 3 nM
Calculated Conc. for each compound in human whole blood ([4]; 6 h): 2040 nM
solubility (physchem): > 10000 µg/mL

C[C@@H]1C[C@H]2[C@@H]3CCC4=CC(=O)C=C[C@]4(C)[C@@]3(F)[C@@H](O)C[C@]2(C)[C@@]1(O)C(=O)COP(=O)(O)Oc1ccc(NC(=O)COC2C#CCCCCC2)cc1 (stereo partly drawn) [Compound 5-3, 4-(2-(cyclooct-2-yn-1-yloxy)acetamido)phenyl (2-((8S,9R,10S,11S,13S,14S,16R,17R)-9-fluoro-11,17-dihydroxy-10,13,16-trimethyl-3-oxo-6,7,8,9,10,11,12,13,14,15,16,17-dodecahydro-3H-cyclopenta[a]phenanthren-17-yl)-2-oxoethyl) hydrogen phosphate]
Calculated Conc. for each compound in rat lysosomal lysate ([1]; 37° C., 0 m): 1394.08 nM
Calculated Conc. for each compound in rat lysosomal lysate ([1]; 37° C., 5 m): 1295.86 nM
Calculated Conc. for each compound in rat lysosomal lysate ([1]; 37° C., 10 m): 1278.4 nM
Calculated Conc. for each compound in rat lysosomal lysate ([1]; 37° C., 15 m): 1407.73 nM
Calculated Conc. for each compound in rat lysosomal lysate ([1]; 37° C., 30 m): 1175.39 nM
Calculated Conc. for each compound in rat lysosomal lysate ([1]; 37° C., 1 hr): 970.65 nM
Calculated Conc. for each compound in rat lysosomal lysate ([1]; 37° C., 2 hr): 743.45 nM
Calculated Conc. for each compound in rat lysosomal lysate ([1]; 37° C., 3 hr): 500.41 nM
Calculated Conc. for each compound in rat lysosomal lysate ([1]; 37° C., 6 hr): 221.03 nM
Calculated Conc. for each compound in rat lysosomal lysate [1, 5]: 2555.29 nM
Calculated Conc. for each compound in human whole blood ([2]; 37° C., 0 m): 1299 nM
Calculated Conc. for each compound in human whole blood ([2]; 37° C., 5 m): 1251 nM
Calculated Conc. for each compound in human whole blood ([2]; 37° C., 15 m): 1276 nM
Calculated Conc. for each compound in human whole blood ([2]; 37° C., 30 m): 1111 nM
Calculated Conc. for each compound in human whole blood ([2]; 37° C., 1 hr): 937 nM
Calculated Conc. for each compound in human whole blood ([2]; 37° C., 2 hr): 1480 nM
solubility [3]: > 10000 µg/mL

C[C@@H]1C[C@H]2[C@@H]3CCC4=CC(=O)C=C[C@]4(C)[C@@]3(F)[C@@H](O)C[C@]2(C)[C@@]1(O)C(=O)CO [Dexamethasone, dexamethasone, reference compound]
Calculated Conc. for each compound in rat lysosomal lysate ([1]; 37° C., 0 m): 1456.4 nM
Calculated Conc. for each compound in rat lysosomal lysate ([1]; 37° C., 5 m): 1851.2 nM
Calculated Conc. for each compound in rat lysosomal lysate ([1]; 37° C., 10 m): 1640.8 nM
Calculated Conc. for each compound in rat lysosomal lysate ([1]; 37° C., 15 m): 1666.7 nM
Calculated Conc. for each compound in rat lysosomal lysate ([1]; 37° C., 30 m): 1602.6 nM
Calculated Conc. for each compound in rat lysosomal lysate ([1]; 37° C., 1 hr): 1576.8 nM
Calculated Conc. for each compound in rat lysosomal lysate ([1]; 37° C., 2 hr): 1681.0 nM
Calculated Conc. for each compound in rat lysosomal lysate ([1]; 37° C., 3 hr): 1689.7 nM
Calculated Conc. for each compound in rat lysosomal lysate ([1]; 37° C., 6 hr): 1689.8 nM
Calculated Conc. for each compound in rat lysosomal lysate [1, 5]: 2059.0 nM
Calculated Conc. for each compound in human whole blood ([2]; 37° C., 0 m): 1687 nM
Calculated Conc. for each compound in human whole blood ([2]; 37° C., 20 m): 2409 nM
Calculated Conc. for each compound in human whole blood ([2]; 37° C., 1 hr): 2224 nM
Calculated Conc. for each compound in human whole blood ([2]; 37° C., 3 hr): 1502 nM
Calculated Conc. for each compound in human whole blood ([2]; 37° C., 6 hr): 2792 nM
Calculated Conc. for each compound in human whole blood ([2]; Matrix spiking (time 0 sample, blood pretreated with stopping reagent)): 2939 nM
